Assays:
[1] = tested on: P53 binding to PUMA promoter; assay: ChIP of p53 binding to PUMA promoter in H1299 stably expressing p53 mutants; format: cell-based, human; details: 0.5 μM CPT at 32° C. for 20 hrs
Experimental: (§1) FIGS. 1B and 1C show representative p53 ts mutants stably expressed in H1299 cells tested for induction of target gene expression after 20 hrs at 32° C. CPT (0.5 μM for 20 hrs) was added when cells were shifted to 32° C. […] P53 binding to PUMA promoter was determined by ChIP. The results are average of 3 experiments (mean±SD).
Chromatin immunoprecipitation (ChIP). ChIP assay was performed using standard procedure. Crosslinked p53-DNA complexes were immunoprecipitated with DO-1 antibody. Samples were subjected to SYBR Green real-time PCR analysis using forward and reverse primers for the p53 binding sites in the p21 promoter ([…] (SEQ ID NO:7) and […] (SEQ ID NO:8)), and PUMA promoter ([…] (SEQ ID NO:9) and […] (SEQ ID NO:10)).

GA10-p53KO tumors = assay: GA10-p53KO subcutaneous tumor xenografts in nude mice treated with CPT and hypothermia; format: in vivo; details: 32 hr×5 format
Experimental: FIGS. 7A to 7E show hypothermia cooperates with chemotherapy to induce regression of tumors expressing ts p53. […] CPT (1.5 mg/kg) was given at the beginning of each hypothermia cycle. Average size of tumors was plotted over time (mean±SD). FIG. 7B contains pictures of a GA10 partial response tumor before and after treatment. FIG. 7C is a waterfall plot showing combined results of 3 experiments. Tumors with durable remission are marked as “cured”. FIG. 7D contains individual growth curves of representative GA10 tumors from FIG. 7A that achieved durable remission after treatment. FIG. 7E contains individual growth curves of GA10 tumors from FIG. 7A that relapsed and received re-treatment.
Animal experiment. Animal experiments were reviewed and approved by the University of South Florida IACUC. Athymic female nude mice (6-week old, Athymic Nude-Foxn1nu, Envigo) were injected subcutaneously with 0.1 ml 1:1 slurry of Matrigel (VWR 47743-715) and 1×10^7 cells in PBS at each site. The inoculated mice were housed in a cabinet set to 28° C. (ARIA BIO-C36 ventilated cabinet, TECNIPLAST) to ensure that tumors develop at ˜37° C. […] The mice were kept in the 28° C. cabinet and monitored using infrared thermal imaging camera (FLIR ONE Pro, FLIR® Systems, Inc.) to verify that body temperature was maintained at ˜32° C. […]

[2] = tested on: H1299 cells stably expressing p53 ts mutants; assay: Western blot of p53 target gene induction in H1299 stably expressing ts p53 mutants, with CPT; format: cell-based, human
Experimental: as §1
FIGS. 10A to 10F show induction of endogenous targets by ts p53 mutants. P53 ts mutants were stably expressed in H1299 cells using lentivirus vector. Cells were tested for induction of target gene expression after 20 hrs at 32° C. by Western blot. CPT (0.5 μM for 20 hrs) was added when cells were shifted to 32° C. A138V was used as a benchmark to facilitate comparison between gels.
Western blot. Cells were lysed in lysis buffer (50 mM Tris-HCl pH 8.0, 5 mM EDTA, 150 mM NaCl, 0.5% Nonidet P-40, 1×protease inhibitor cocktail) and centrifuged for 10 minutes at 14,000×g, and the insoluble debris was discarded. Cell lysate (10-50 µg of protein) was fractionated by SDS-PAGE and transferred to Immobilion P filters (Millipore). The filter was blocked for 1 hr with phosphate buffered saline (PBS) containing 5% non-fat dry milk and 0.1% Tween 20, incubated with primary and secondary antibodies, and the filter was developed using SuperSignal reagent (Thermo Scientific). MDM2 was detected using monoclonal antibody 3G9 produced in house. Other markers were detected using commercial antibodies: Actin (Sigma A5441), p53-DO1 (BD Pharmingen #554293), p21 (BD Pharmingen #556430), PUMA (CellSignaling #12450), PARP (BD Pharmingen #556362), p53 pSer15 (CellSignaling #9284), p53 acetyl-Lys382 (CellSignaling #2525).
Validation of ts p53 mutants from cancer. We selected 17 most frequently observed ts mutants for validation in p53-null H1299 cells. These ts mutants together represent 9.6% (2,358/24,679) of tumors with p53 missense mutations (Table 3), or 64% (2,358/3,658) of tumors with ts p53 mutations. The ability of these mutants to activate the p21 and PUMA promoters at 32° C. were confirmed in reporter assays after transient expression (FIG. 2A, FIG. 8A-8C). […]

CC[C@@]1(O)C(=O)OCc2c1cc1n(c2=O)Cc2cc3ccccc3nc2-1 [CPT, Camptothecin]
PUMA promoter binding by the ts mutants (ChIP) [1]: further stimulated the binding | GA10-p53KO complete response or durable remission (GA10-p53KO tumors; CPT 1.5 mg/kg and 32° C. hypothermia): did not achieve complete response or durable remission | GA10-p53KO tumor size change (GA10-p53KO tumors; p53-independent effects of CPT and hypothermia): modest shrinkage | ts p53 Ser15 phosphorylation and K382 acetylation ([2]; CPT 0.5 μM for 20 hrs at 32° C., Western blot): stimulated | PUMA expression in the absence of p53 ([2]; H1299 without p53, CPT 0.5 μM for 20 hrs): modestly stimulated PUMA expression | induction of endogenous PUMA ([2]; stably transfected H1299 with ts mutants, CPT 0.5 μM for 20 hrs at 32° C., Western blot): could be stimulated

Reference: patent publication US20240307220A1, “Combination Therapy to Treat Temperature Sensitive Mutant Tumors” (H. LEE MOFFITT CANCER CENTER AND RESEARCH INSTITUTE INC., priority 2021, published 2024)
